Experiments:
[1] = test system: rabbit serum obtained by immunizing a rabbit with the SARS-CoV strain Frankfurt 1; type: binding; parameters: Binding of a rabbit serum to linear peptides / Binding of a rabbit serum to looped peptides / Rabbit serum linear peptides / Rabbit serum looped peptides / Binding of a rabbit serum to linear peptides of protein N of SARS-CoV Urbani (Rabbit serum linear peptides) / Binding of a rabbit serum to looped/cyclic peptides of protein N of SARS-CoV Urbani (Rabbit serum looped peptides): unit not given here
[2] = test system: control sera (pooled serum of ten healthy LUMC hospital workers; commercial negative donor pooled serum from the Dutch bloodbank); type: binding, human; parameters: Binding of Control serum LUMC to linear peptides / Binding of Control serum Blood-bank to linear peptides / Binding of Control serum LUMC to looped peptides / Binding of Control Serum Blood-Bank to Looped peptides / Binding of Control serum LUMC to linear peptides of the protein M of SARS-CoV Urbani / Binding of Control serum Blood-bank to linear peptides of the protein M of SARS-CoV Urbani / Binding of Control serum LUMC to looped peptides of the protein M of SARS-CoV Urbani / Binding of Control Serum Blood-Bank to Looped peptides of the protein M of SARS-CoV Urbani: unit not given here
[3] = test system: recombinant human anti-SARS-CoV antibody 03-018; type: binding; parameters: Binding of antibody 03-018 to linear peptides of the N protein of SARS-CoV Urbani / Binding of antibody 03-018 to looped/cyclic peptides of the N protein of SARS-CoV Urbani: unit not given here

Sequence: ARMASGGGETALALL
- Binding of a rabbit serum to linear peptides of protein N of SARS-CoV Urbani (Rabbit serum linear peptides) [1]: 0.2
- Binding of a rabbit serum to looped/cyclic peptides of protein N of SARS-CoV Urbani (Rabbit serum looped peptides) [1]: 0.0
- Binding of Control Serum Blood-Bank to Looped peptides [2]: 0.6
- Binding of Control serum Blood-bank to linear peptides [2]: 0.8
- Binding of Control serum LUMC to linear peptides [2]: 0.7
- Binding of Control serum LUMC to looped peptides [2]: 0.8
- Binding of antibody 03-018 to linear peptides of the N protein of SARS-CoV Urbani [3]: 0.1
- Binding of antibody 03-018 to looped/cyclic peptides of the N protein of SARS-CoV Urbani [3]: 0.3

Sequence: DPQFKDNVILLNKHI
- Binding of a rabbit serum to linear peptides of protein N of SARS-CoV Urbani (Rabbit serum linear peptides) [1]: 0.2
- Binding of a rabbit serum to looped/cyclic peptides of protein N of SARS-CoV Urbani (Rabbit serum looped peptides) [1]: 0.7
- Binding of antibody 03-018 to linear peptides of the N protein of SARS-CoV Urbani [3]: 0.1
- Binding of antibody 03-018 to looped/cyclic peptides of the N protein of SARS-CoV Urbani [3]: 0.3

Sequence: IKLDDKDPQFKDNVI
- Binding of a rabbit serum to linear peptides of protein N of SARS-CoV Urbani (Rabbit serum linear peptides) [1]: 0.1
- Binding of a rabbit serum to looped/cyclic peptides of protein N of SARS-CoV Urbani (Rabbit serum looped peptides) [1]: 0.3
- Control Serum Blood-Bank Looped peptides [2]: 0.6
- Control serum Blood-bank linear peptides [2]: 0.9
- Control serum LUMC linear peptides [2]: 0.9
- Control serum LUMC looped peptides [2]: 0.6
- Binding of antibody 03-018 to linear peptides of the N protein of SARS-CoV Urbani [3]: 0.1
- Binding of antibody 03-018 to looped/cyclic peptides of the N protein of SARS-CoV Urbani [3]: 0.2

Sequence: KDPQFKDNVILLNKH
- Binding of a rabbit serum to linear peptides of protein N of SARS-CoV Urbani (Rabbit serum linear peptides) [1]: 0.2
- Binding of a rabbit serum to looped/cyclic peptides of protein N of SARS-CoV Urbani (Rabbit serum looped peptides) [1]: 0.5
- Binding of antibody 03-018 to linear peptides of the N protein of SARS-CoV Urbani [3]: 0.1
- Binding of antibody 03-018 to looped/cyclic peptides of the N protein of SARS-CoV Urbani [3]: 0.2

Sequence: LDDKDPQFKDNVILL
- Binding of a rabbit serum to linear peptides of protein N of SARS-CoV Urbani (Rabbit serum linear peptides) [1]: 0.1
- Binding of a rabbit serum to looped/cyclic peptides of protein N of SARS-CoV Urbani (Rabbit serum looped peptides) [1]: 0.2
- Binding of antibody 03-018 to linear peptides of the N protein of SARS-CoV Urbani [3]: 0.1
- Binding of antibody 03-018 to looped/cyclic peptides of the N protein of SARS-CoV Urbani [3]: 0.3

Sequence: LPQGTTLPKGFYAEG
- Binding of a rabbit serum to linear peptides of protein N of SARS-CoV Urbani (Rabbit serum linear peptides) [1]: 0.1
- Binding of a rabbit serum to looped/cyclic peptides of protein N of SARS-CoV Urbani (Rabbit serum looped peptides) [1]: 0.7
- Binding of Control Serum Blood-Bank to Looped peptides [2]: 0.9
- Binding of Control serum Blood-bank to linear peptides [2]: 0.8
- Binding of Control serum LUMC to linear peptides [2]: 0.8
- Binding of Control serum LUMC to looped peptides [2]: 0.8
- Binding of antibody 03-018 to linear peptides of the N protein of SARS-CoV Urbani [3]: 0.1
- Binding of antibody 03-018 to looped/cyclic peptides of the N protein of SARS-CoV Urbani [3]: 0.3

Sequence: NNAATVLQLPQGTTL
- Binding of a rabbit serum to linear peptides of protein N of SARS-CoV Urbani (Rabbit serum linear peptides) [1]: 0.2
- Binding of a rabbit serum to looped/cyclic peptides of protein N of SARS-CoV Urbani (Rabbit serum looped peptides) [1]: 0.4
- Binding of Control Serum Blood-Bank to Looped peptides [2]: 0.8
- Binding of Control serum Blood-bank to linear peptides [2]: 0.9
- Binding of Control serum LUMC to linear peptides [2]: 0.9
- Binding of Control serum LUMC to looped peptides [2]: 0.8
- Binding of antibody 03-018 to linear peptides of the N protein of SARS-CoV Urbani [3]: 0.1
- Binding of antibody 03-018 to looped/cyclic peptides of the N protein of SARS-CoV Urbani [3]: 0.3

From patent publication US20070128217A1 (priority 2003, published 2007)
